Reference: paper PMC8457735, “Synthesis, Kinetics, Binding Conformations and Structure-activity Relationship of Potent Tyrosinase Inhibitors: Aralkylated 2-aminothiazole-ethyltriazole Hybrids” (Iranian Journal of Pharmaceutical Research : IJPR, 2021)
Entries after “also recorded” stand apart in the source; their conditions may differ.

Experiments:
mushroom tyrosinase = mushroom tyrosinase (Agaricus bisporus, UniProt C7FF04); assay: Kinetic analysis of tyrosinase inhibition (Lineweaver-Burk and secondary plots); type: biochemical
Protocol: A series of experiments were performed to determine the inhibition kinetics of 7g, following the already reported methods ([54]). The concentrations for 7g were 0.00, 0.0018, 0.0036 and 0.0072 µM. Substrate L-DOPA concentrations were between 0.0625 to 2 mM in all kinetic studies. Pre-incubation and measurement time was the same as discussed in the mushroom tyrosinase inhibition assay protocol. Maximal initial velocity was determined from the initial linear portion of absorbance up to five minutes after the addition of enzyme at the 30s interval. The inhibition type of the enzyme was assayed by Lineweaver-Burk plots of the inverse of velocities (1/V) versus the inverse of substrate concentration 1/[L-DOPA] mM^-1.

[1] = Free radical scavenging assay (DPPH); settings: compound concentration 100 µg/mL
Protocol: Radical scavenging activity was determined by modifying the already reported method by 2, 2-diphenyl-1 picrylhydrazyl (DPPH) assay ([55]). The assay solution consisted of 100 µL of DPPH (150 µM), 20 µL of increasing concentration of test compounds, and the volume was adjusted to 200 µL in each well with CH3OH. After that, the assay reaction was then incubated for 30 minutes at room temperature. Ascorbic acid (Vitamin C) was used as a reference inhibitor. The assay measurements were carried out using a microplate reader (OPTI Max, Tunable) at 517 nm. The reaction rates were compared, and the percent inhibition caused by tested inhibitors was calculated. All experiments were repeated thrice.

mushroom tyrosinase, sequence (C7FF04 1-392): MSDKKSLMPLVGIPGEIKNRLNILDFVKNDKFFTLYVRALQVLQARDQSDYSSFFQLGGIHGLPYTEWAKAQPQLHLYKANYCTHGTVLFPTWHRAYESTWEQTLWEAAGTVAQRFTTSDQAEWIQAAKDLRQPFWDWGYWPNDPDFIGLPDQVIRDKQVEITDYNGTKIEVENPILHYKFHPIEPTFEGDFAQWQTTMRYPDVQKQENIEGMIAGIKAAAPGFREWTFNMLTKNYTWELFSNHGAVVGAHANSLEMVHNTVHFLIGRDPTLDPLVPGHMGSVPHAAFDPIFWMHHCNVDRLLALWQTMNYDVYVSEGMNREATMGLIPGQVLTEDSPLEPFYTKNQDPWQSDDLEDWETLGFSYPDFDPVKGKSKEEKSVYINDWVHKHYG

CCn1c(Cc2csc(N)n2)nnc1SCc1ccc(Br)cc1 [Compound 7k, -({5-[(4-Bromobenzyl)sulfanyl]-4-ethyl-4H-1,2,4-triazol-3-yl}methyl)-1,3-thiazol-2-amine]
melting point: 150 to 151 °C

CCn1c(Cc2csc(N)n2)nnc1SCc1ccc(Cl)cc1Cl [Compound 7g, 4-({5-[(2,4-Dichlorobenzyl)sulfanyl]-4-ethyl-4H-1,2,4-triazol-3-yl}methyl)-1,3-thiazol-2-amine]
Vmax (mushroom tyrosinase; L-DOPA activity in presence of 0.0018 µM 7g): 6.676 × 10^-5 ΔA/s
Vmax (mushroom tyrosinase; L-DOPA activity in presence of 0.0036 µM 7g): 4.712 × 10^-5 ΔA/s
Vmax (mushroom tyrosinase; L-DOPA activity in presence of 0.0072 µM 7g): 4.223 × 10^-5 ΔA/s
Inhibition Type (mushroom tyrosinase; Lineweaver-Burk plots, substrate L-DOPA 0.0625-2 mM): non-competitively; also recorded: Non-Competitive
radical scavenging activity [1]: 24%

CCn1c(Cc2csc(N)n2)nnc1SCc1ccccc1Br [Compound 7i, 4-({5-[(2-Bromobenzyl)sulfanyl]-4-ethyl-4H-1,2,4-triazol-3-yl}methyl)-1,3-thiazol-2-amine]
melting point: 108 to 109 °C

CCn1c(Cc2csc(N)n2)nnc1SCc1ccc(Cl)c(Cl)c1 [Compound 7h, 4-({5-[(3,4-Dichlorobenzyl)sulfanyl]-4-ethyl-4H-1,2,4-triazol-3-yl}methyl)-1,3-thiazol-2-amine]
radical scavenging activity [1]: 21%
